Drawing on PubChem BioAssay (NCI), this text covers TGI and GI50 for 25 compounds.

Test systems include HOP-62 NSCLC; HT29 colon; OVCAR-5 ovarian; RPMI-8226 leukemia; SF-539 CNS; SK-MEL-2 melanoma; SW-620 colon.
What all share (test): NCI anticancer screen, dose series, 48 h

Values joined by “and” are separate entries in the source; they are usually repeats but may differ in a detail not shown here. Equal values may be shown once.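 Briefly, cells in 96-well plates were exposed to five compound concentrations for 48 h, and endpoints were estimated by linear interpolation. Abbreviation: GI50, concentration required for 50% inhibition of growth. TGI is the concentration that stops growth completely.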 Some results are limits rather than exact numbers.

`COC(=O)/C=C1/CCC2[C@@H](C(=O)CC3[C@]2(C)CCC[C@@]3(C)C(=O)OC)C1C` (some centres undefined): the TGI stood at 39.5 µM in the assay on HOP-62 NSCLC; 20.2 µM in the assay with HT29 colon; 39.4 µM in the assay on OVCAR-5 ovarian; 14.4 µM in the assay on RPMI-8226 leukemia; 28.5 µM with SF-539 CNS; 35.7 µM with SK-MEL-2 melanoma. Also, in the assay on SW-620 colon, the TGI turned out to be 22.5 µM.

`Cc1cc(O)cc2oc(=O)c3c(O)cc(O)cc3c12`: the TGI in the assay with HOP-62 NSCLC was 50.9 µM; with HT29 colon, greater than 100 µM; in the assay on OVCAR-5 ovarian, greater than 100 µM; in the assay on SF-539 CNS, 49.2 µM; in the assay with SK-MEL-2 melanoma, greater than 100 µM; in the assay on SW-620 colon it was 49.9 µM.

As for `CCOC(C)C(/C=N/NC(N)=S)=NNC(N)=S` (centres undefined), the TGI with HOP-62 NSCLC was greater than 100 µM; in the assay with OVCAR-5 ovarian, greater than 100 µM; with RPMI-8226 leukemia it was greater than 100 µM; in the assay on SF-539 CNS, greater than 100 µM; in the assay with SK-MEL-2 melanoma, greater than 85.3 µM; in the assay with SW-620 colon it was greater than 100 µM.

`[O-]c1c2c(nn1-c1ccccc1)c1ccccc1c[n+]2Cc1ccccc1`: the TGI in the assay on HOP-62 NSCLC, with HT29 colon, with OVCAR-5 ovarian, with RPMI-8226 leukemia, in the assay on SF-539 CNS and in the assay on SK-MEL-2 melanoma was greater than 100 µM each time. In the assay with SW-620 colon, this compound gave a TGI greater than 100 µM.

On to `Cc1ccc(NC(=O)C(=O)C2C(=O)N(c3ccccc3)N=C2N)cc1C` (centres undefined), for which the TGI with HOP-62 NSCLC, in the assay on HT29 colon, in the assay on OVCAR-5 ovarian, in the assay with RPMI-8226 leukemia, with SF-539 CNS and with SW-620 colon was greater than 100 µM in each case.

In the case of `CN(C)CCNC(=O)c1cc2ccccc2c2nc3ccccc3nc12`, the TGI in the assay on HOP-62 NSCLC stood at 5 µM; in the assay with HT29 colon, 2.9 µM; in the assay with OVCAR-5 ovarian, 5.64 µM; in the assay on RPMI-8226 leukemia, 3.42 µM; in the assay with SF-539 CNS, 1.55 µM; in the assay with SK-MEL-2 melanoma, 2.81 µM.

For the compound `CC1=NN(c2ccccc2)C(=O)C1=C1SCCS1`, the TGI with HOP-62 NSCLC was greater than 100 µM; in the assay on HT29 colon it was greater than 100 µM; in the assay with OVCAR-5 ovarian, greater than 100 µM; in the assay with RPMI-8226 leukemia, greater than 49.5 µM; in the assay with SF-539 CNS it was greater than 100 µM; with SK-MEL-2 melanoma, greater than 100 µM. The same compound had a TGI in the assay on SW-620 colon greater than 53.8 µM.

With `CC(=O)[CH-]C(=O)c1ccccc1.CC(=O)[CH-]C(=O)c1ccccc1.CC[O-].CC[O-].[Zr+4]`, the GI50 with HOP-62 NSCLC, with HT29 colon, with OVCAR-5 ovarian, with RPMI-8226 leukemia, in the assay on SF-539 CNS and with SK-MEL-2 melanoma was greater than 100 µM in each case. Moreover, in the assay with SW-620 colon, the GI50 was greater than 100 µM. Also, the TGI in the assay with HOP-62 NSCLC, with HT29 colon, with OVCAR-5 ovarian, in the assay on RPMI-8226 leukemia, with SF-539 CNS and with SK-MEL-2 melanoma was greater than 100 µM in each case. The compound also displayed a TGI in the assay with SW-620 colon greater than 100 µM.

For `O=S(=O)(O)O.[NH-]C1CCCCC1[NH-].[Pt+2]` (centres undefined), the GI50 is greater than 100 µM in the assay with HOP-62 NSCLC; 63.1 µM with HT29 colon; greater than 100 µM in the assay with OVCAR-5 ovarian; 48.6 µM in the assay with RPMI-8226 leukemia; greater than 100 µM in the assay on SF-539 CNS; greater than 100 µM in the assay with SK-MEL-2 melanoma. Moreover, the GI50 in the assay on SW-620 colon is 5.33 µM. Besides, the TGI with HOP-62 NSCLC, in the assay on HT29 colon, in the assay on OVCAR-5 ovarian, in the assay with RPMI-8226 leukemia, with SF-539 CNS and with SK-MEL-2 melanoma was greater than 100 µM in each case. The compound further returned a TGI in the assay on SW-620 colon greater than 100 µM.

`COc1cc(C2=NN(C)C(c3ccc([N+](=O)[O-])o3)C2)cc(OC)c1OC` (centres undefined): the TGI in the assay with HOP-62 NSCLC was greater than 100 µM; in the assay on HT29 colon, greater than 100 µM; with OVCAR-5 ovarian it was greater than 100 µM; in the assay with RPMI-8226 leukemia, 31.8 µM; in the assay on SF-539 CNS, greater than 100 µM; in the assay with SK-MEL-2 melanoma it was greater than 100 µM. The TGI with SW-620 colon is 30.6 µM.

As to `CC1(C)COC(C23C4C5C2C2C3C4C52I)=N1` (centres undefined), the TGI in the assay on HOP-62 NSCLC, with HT29 colon, with OVCAR-5 ovarian, in the assay with RPMI-8226 leukemia, in the assay on SF-539 CNS and in the assay with SW-620 colon was greater than 100 µM throughout.

For the compound `COC(=O)C1=C(O)c2cc(OC)c(OC)c(OC)c2[C@H](c2cc(OC)c(OC)c(OC)c2)C1C(=O)OC` (some centres undefined), the TGI is greater than 100 µM in the assay with HOP-62 NSCLC; 61.6 µM in the assay on HT29 colon; greater than 100 µM with OVCAR-5 ovarian; 87.1 µM in the assay on RPMI-8226 leukemia; 38.9 µM in the assay with SF-539 CNS; greater than 100 µM in the assay on SW-620 colon.

As for `C/C(CC(=O)Nc1ccc(Cl)c(Cl)c1)=N/NC(=O)C[n+]1ccccc1`, the TGI with HOP-62 NSCLC, in the assay on HT29 colon, with OVCAR-5 ovarian, in the assay with RPMI-8226 leukemia, in the assay on SF-539 CNS and in the assay with SK-MEL-2 melanoma was greater than 100 µM each time.

Turning to `Cc1ccc(NC(=O)CCC(CC(=O)C(C)(C)C)=NNC(=O)C(=O)NN)cc1C`, the TGI in the assay with HOP-62 NSCLC, with HT29 colon, in the assay on OVCAR-5 ovarian, in the assay on RPMI-8226 leukemia, with SF-539 CNS and in the assay on SK-MEL-2 melanoma was greater than 100 µM each time. Moreover, the TGI with SW-620 colon was greater than 100 µM.

Take `CCOC(=O)C12CCCC1(O)N(NC(=O)c1ccccc1)C(C)=C2C(=O)OC` (centres undefined): the TGI in the assay on HOP-62 NSCLC, in the assay with HT29 colon, in the assay on OVCAR-5 ovarian, with RPMI-8226 leukemia, with SF-539 CNS and in the assay on SK-MEL-2 melanoma was greater than 100 µM in each case. Besides, the TGI in the assay on SW-620 colon is greater than 100 µM.

As to `O=C(O)C(CP(=O)(O)O)=C(Cl)Cl`, the TGI in the assay with HOP-62 NSCLC, with HT29 colon, in the assay with OVCAR-5 ovarian, with RPMI-8226 leukemia, in the assay with SF-539 CNS and with SK-MEL-2 melanoma was greater than 100 µM throughout. Moreover, in the assay with SW-620 colon, the TGI was greater than 100 µM.

Turning to `CCC[CH2][Sn]1([CH2]CCC)[O]C(=O)c2cc(I)cc(I)c2[O]1`, the GI50 is 2.13 µM in the assay with HOP-62 NSCLC; 2.03 µM with HT29 colon; 1.99 µM in the assay on OVCAR-5 ovarian; 0.238 µM in the assay on RPMI-8226 leukemia; 1.16 µM in the assay on SF-539 CNS; 0.491 µM in the assay with SK-MEL-2 melanoma. The GI50 in the assay with SW-620 colon is 0.367 µM. For the same compound, the TGI in the assay on HOP-62 NSCLC was determined as 4.12 µM; in the assay with HT29 colon, 4.21 µM; in the assay with OVCAR-5 ovarian, 3.48 µM; with RPMI-8226 leukemia it was 1.16 µM; in the assay on SF-539 CNS it was 2.44 µM; in the assay with SK-MEL-2 melanoma, 1.94 µM. For the same compound, the TGI with SW-620 colon turned out to be 1.57 µM.

For `Cc1c(Cl)ccc2c1NC(=O)C2(O)C(C(=O)c1ccccc1)c1ccccc1` (centres undefined), the TGI in the assay with HOP-62 NSCLC is greater than 100 µM; with HT29 colon, greater than 100 µM; in the assay with OVCAR-5 ovarian it was greater than 100 µM; in the assay with RPMI-8226 leukemia it was 69 µM; in the assay on SF-539 CNS it was greater than 100 µM; with SK-MEL-2 melanoma, greater than 100 µM. Moreover, in the assay with SW-620 colon, the TGI was greater than 100 µM.

For `CS(=O)(=O)NNS(=O)(=O)c1cccc([N+](=O)[O-])c1`, the TGI with HOP-62 NSCLC, in the assay on HT29 colon, in the assay with RPMI-8226 leukemia, in the assay on SF-539 CNS, with SK-MEL-2 melanoma and with SW-620 colon was greater than 100 µM throughout.

For the compound `COc1ccc(C(=O)C(c2ccc(OC)cc2)C2(O)C(=O)Nc3ccccc32)cc1` (centres undefined), the TGI in the assay with HT29 colon, with RPMI-8226 leukemia, in the assay with SF-539 CNS, with SK-MEL-2 melanoma and in the assay on SW-620 colon was greater than 100 µM each time.

As for `O=S1c2ccccc2N=C(c2ccc3ccccc3c2)CC1C1=CC=CCC1` (centres undefined), the TGI in the assay with HOP-62 NSCLC was determined as 40.4 µM; with HT29 colon, 31.4 µM; with OVCAR-5 ovarian, 40.6 µM; in the assay on RPMI-8226 leukemia it was 36.9 µM; in the assay with SF-539 CNS, 45.3 µM; in the assay with SK-MEL-2 melanoma, 40.5 µM. This compound displayed a TGI with SW-620 colon of 36.7 µM.

`COc1cc(/C=C2\[C@H]3c4c(c(OC)c(C)c(OC)c4OC)C[C@@H](C(=O)N2Cc2ccccc2)N3C(=O)OCC(C)C)c(OC)c(C)c1OC`: the TGI in the assay with HOP-62 NSCLC, in the assay on HT29 colon, in the assay on OVCAR-5 ovarian, in the assay on RPMI-8226 leukemia, with SF-539 CNS and in the assay with SK-MEL-2 melanoma was greater than 100 µM in each case. Besides, the TGI in the assay with SW-620 colon was greater than 31.6 µM.

`COc1ccc2c(=O)c(C)c(-c3ccccc3)oc2c1CN(C)C`: the TGI with HOP-62 NSCLC, in the assay with HT29 colon, in the assay with OVCAR-5 ovarian, in the assay with RPMI-8226 leukemia, in the assay with SF-539 CNS and with SW-620 colon was greater than 100 µM each time. Also, the GI50 in the assay on HT29 colon was > 100 µM and 30.6 µM.

As for `C/C(=C\C(C)COCc1ccccc1)[C@H](COCc1ccccc1)OCc1ccccc1` (some centres undefined), the TGI in the assay with HOP-62 NSCLC, in the assay on HT29 colon, with OVCAR-5 ovarian, in the assay on RPMI-8226 leukemia, in the assay with SF-539 CNS and in the assay on SK-MEL-2 melanoma was greater than 100 µM in each case. In the assay on SW-620 colon, this compound came in with a TGI greater than 100 µM.

Take `O=c1/c(=C/c2cccc([N+](=O)[O-])c2)sc2nc3ccccc3n12`: the TGI in the assay on HOP-62 NSCLC, in the assay on HT29 colon, with OVCAR-5 ovarian, with SK-MEL-2 melanoma and with SW-620 colon was greater than 100 µM in each case.
